Patent US9833497B2, “Human originated EGF domain proteins and use of the same” (CHENGDU SOURCEBIO LIMITED-LIABILITY COMPANY, priority 2013, dated 2017)

How the values were obtained:
Type in all cases: cell-based
Klebsiella pneumonia = test: MIC against Gram-negative bacteria: Klebsiella pneumonia
How it was run: (§1)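 Bacteria grown in LB at 37° C to McFarland 0.5, resuspended and seeded at 5×10^5 CFU/mL in 96-well plates. Purified human EGF-domain proteins two-fold serially diluted, triplicate wells; cultured at 37° C, shaking 175 rpm. MIC = lowest protein concentration with no growth.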

Proteus vulgaris = test: MIC against Gram-negative bacteria: Proteus vulgaris
How it was run: as §1

Aeromonas hydrophila = test: MIC against Gram-negative bacteria: Aeromonas hydrophila
How it was run: as §1

Citrobacter diversus = test: MIC against Gram-negative bacteria: Citrobacter diversus
How it was run: as §1

Enterobacter cloacae = test: MIC against Gram-negative bacteria: Enterobacter cloacae
How it was run: as §1

Moraxella catarrhalis = test: MIC against Gram-negative bacteria: Moraxella catarrhalis
How it was run: as §1

Pseudomonas aeruginosa = test: MIC against Gram-negative bacteria: Pseudomonas aeruginosa
How it was run: as §1

Proteus mirabilis = test: MIC against Gram-negative bacteria: Proteus mirabilis
How it was run: as §1

E. coli DH5α = test: Antibacterial activity: MIC and growth curve against E. coli DH5α in 96-well plate; details: minimal inhibitory concentration against E. coli DH5α; 96-well plate, 5×10^5 CFU/mL, 37° C., judged after 8 h
How it was run: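 Log-phase bacteria (OD600 ~0.5) resuspended in LB at 5×10^5 CFU/mL, exposed to recombinant protein at 50, 25, 12.5 μg/mL final in triplicate, 37 °C shaking at 175 rpm. OD600 read every 30 min; MIC is lowest concentration showing no growth.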

E. coli BL21 = test: MIC against Gram-negative bacteria: E. coli BL21
How it was run: as §1

Serratia marcescens = test: MIC against Gram-negative bacteria: Serratia marcescens
How it was run: as §1

[1] = K. pneumonia, 10 h cultivation at 37° C., 5×10^5 CFU/mL
[2] = P. vulgaris, 10 h cultivation at 37° C., 5×10^5 CFU/mL
[3] = A. hydrophila, 10 h cultivation at 37° C., 5×10^5 CFU/mL
[4] = C. diversus, 10 h cultivation at 37° C., 5×10^5 CFU/mL
[5] = E. cloacae, 10 h cultivation at 37° C., 5×10^5 CFU/mL
[6] = M. catarrhalis, 10 h cultivation at 37° C., 5×10^5 CFU/mL
[7] = P. aeruginosa, 10 h cultivation at 37° C., 5×10^5 CFU/mL
[8] = P. mirabilis, 10 h cultivation at 37° C., 5×10^5 CFU/mL
[9] = E. coli BL21, 10 h cultivation at 37° C., 5×10^5 CFU/mL
[10] = S. marcescens, 10 h cultivation at 37° C., 5×10^5 CFU/mL
[11] = 96-well plate, 5×10^5 CFU/mL, 37° C., 10 h

Substance: PRT21 (NCATPCTEGCECNQGFVLSTSQCV; listed as Homo sapiens)
- MIC (μg/mL) K. pneumonia (Klebsiella pneumonia; Klebsiella pneumonia, 96-well plate, 5×10^5 CFU/mL, 37° C., 10 h): 25 µg/mL
- MIC (μg/mL) P. vulgaris (Proteus vulgaris; Proteus vulgaris, 96-well plate, 5×10^5 CFU/mL, 37° C., 10 h): 25 µg/mL
- MIC (μg/mL) A. hydrophila (Aeromonas hydrophila; Aeromonas hydrophila, 96-well plate, 5×10^5 CFU/mL, 37° C., 10 h): 12.5 µg/mL
- MIC (μg/mL) C. diversus (Citrobacter diversus; Citrobacter diversus, 96-well plate, 5×10^5 CFU/mL, 37° C., 10 h): 25 µg/mL
- MIC (μg/mL) E. cloacae (Enterobacter cloacae; Enterobacter cloacae, 96-well plate, 5×10^5 CFU/mL, 37° C., 10 h): 50 µg/mL
- MIC (μg/mL) M. catarrhalis (Moraxella catarrhalis; Moraxella catarrhalis, 96-well plate, 5×10^5 CFU/mL, 37° C., 10 h): 12.5 µg/mL
- MIC (μg/mL) P. aeruginosa (Pseudomonas aeruginosa; Pseudomonas aeruginosa, 96-well plate, 5×10^5 CFU/mL, 37° C., 10 h): 12.5 µg/mL
- MIC (μg/mL) P. mirabilis (Proteus mirabilis; Proteus mirabilis, 96-well plate, 5×10^5 CFU/mL, 37° C., 10 h): 50 µg/mL
- MIC (E. coli DH5α): 25 µg/mL
- MIC (μg/mL) E. coli BL21 (E. coli BL21; E. coli BL21, 96-well plate, 5×10^5 CFU/mL, 37° C., 10 h): 50 µg/mL
- MIC (μg/mL) S. marcescens (Serratia marcescens; Serratia marcescens, 96-well plate, 5×10^5 CFU/mL, 37° C., 10 h): 50 µg/mL

Substance: PRT199 (CLPETCNMKGICNNKHHCHCGYGWSPPYCQ; listed as Homo sapiens)
- MIC (μg/mL) K. pneumonia (Klebsiella pneumonia; [1]): 12.5 µg/mL
- MIC (μg/mL) P. vulgaris (Proteus vulgaris; [2]): 12.5 µg/mL
- MIC (μg/mL) A. hydrophila (Aeromonas hydrophila; [3]): 12.5 µg/mL
- MIC (μg/mL) C. diversus (Citrobacter diversus; [4]): 12.5 µg/mL
- MIC (μg/mL) E. cloacae (Enterobacter cloacae; [5]): 12.5 µg/mL
- MIC (μg/mL) M. catarrhalis (Moraxella catarrhalis; [6]): 12.5 µg/mL
- MIC (μg/mL) P. aeruginosa (Pseudomonas aeruginosa; [7]): 12.5 µg/mL
- MIC (μg/mL) P. mirabilis (Proteus mirabilis; [8]): 12.5 µg/mL
- MIC (E. coli DH5α): 25 µg/mL
- MIC (μg/mL) E. coli BL21 (E. coli BL21; [9]): 12.5 µg/mL
- MIC (μg/mL) S. marcescens (Serratia marcescens; [10]): 25 µg/mL

Substance: PRT1438 (PVKSCSEPRCFNGGTCQQALYFSDFVCQCPEGFAGKCCE; listed as Homo sapiens)
- MIC against K. pneumonia (Klebsiella pneumonia; Klebsiella pneumonia, 5×10^5 CFU/mL, 10 h cultivation at 37° C.): 25 µg/mL
- MIC against P. vulgaris (Proteus vulgaris; Proteus vulgaris, 5×10^5 CFU/mL, 10 h cultivation at 37° C.): 25 µg/mL
- MIC against A. hydrophila (Aeromonas hydrophila; Aeromonas hydrophila, 5×10^5 CFU/mL, 10 h cultivation at 37° C.): 25 µg/mL
- MIC against C. diversus (Citrobacter diversus; Citrobacter diversus, 5×10^5 CFU/mL, 10 h cultivation at 37° C.): 50 µg/mL
- MIC against E. cloacae (Enterobacter cloacae; Enterobacter cloacae, 5×10^5 CFU/mL, 10 h cultivation at 37° C.): 12.5 µg/mL
- MIC against M. catarrhalis (Moraxella catarrhalis; Moraxella catarrhalis, 5×10^5 CFU/mL, 10 h cultivation at 37° C.): 12.5 µg/mL
- MIC against P. aeruginosa (Pseudomonas aeruginosa; Pseudomonas aeruginosa, 5×10^5 CFU/mL, 10 h cultivation at 37° C.): 50 µg/mL
- MIC against P. mirabilis (Proteus mirabilis; Proteus mirabilis, 5×10^5 CFU/mL, 10 h cultivation at 37° C.): 50 µg/mL
- MIC (E. coli DH5α): 12.5 µg/mL
- MIC against E. coli BL21 (E. coli BL21; E. coli BL21, 5×10^5 CFU/mL, 10 h cultivation at 37° C.): 25 µg/mL
- MIC against S. marcescens (Serratia marcescens; Serratia marcescens, 5×10^5 CFU/mL, 10 h cultivation at 37° C.): 12.5 µg/mL

Substance: PRT962 (NVDDCSPDPCHHGRCVDGIASFSCACAPGYTGTRCE; listed as Homo sapiens)
- MIC (Klebsiella pneumonia; K. pneumonia, 10 h cultivation at 37° C.): 12.5 µg/mL
- MIC (Proteus vulgaris; P. vulgaris, 10 h cultivation at 37° C.): 12.5 µg/mL
- MIC (Aeromonas hydrophila; A. hydrophila, 10 h cultivation at 37° C.): 50 µg/mL
- MIC (Citrobacter diversus; C. diversus, 10 h cultivation at 37° C.): 12.5 µg/mL
- MIC (Enterobacter cloacae; E. cloacae, 10 h cultivation at 37° C.): 25 µg/mL
- MIC (Moraxella catarrhalis; M. catarrhalis, 10 h cultivation at 37° C.): 25 µg/mL
- MIC (Pseudomonas aeruginosa; P. aeruginosa, 10 h cultivation at 37° C.): 25 µg/mL
- MIC (Proteus mirabilis; P. mirabilis, 10 h cultivation at 37° C.): 50 µg/mL
- MIC (E. coli DH5α): 25 µg/mL
- MIC (E. coli BL21; E. coli BL21, 10 h cultivation at 37° C.): 50 µg/mL
- MIC (Serratia marcescens; S. marcescens, 10 h cultivation at 37° C.): 25 µg/mL

Substance: PRT633 (TKPSCVPPCQNGGMCLRPQLCVCKPGTKGKACE; listed as Homo sapiens)
- MIC K. pneumonia (Klebsiella pneumonia; [11]): 50 µg/mL
- MIC P. vulgaris (Proteus vulgaris; [11]): 50 µg/mL
- MIC A. hydrophila (Aeromonas hydrophila; [11]): 50 µg/mL
- MIC C. diversus (Citrobacter diversus; [11]): 12.5 µg/mL
- MIC E. cloacae (Enterobacter cloacae; [11]): 12.5 µg/mL
- MIC M. catarrhalis (Moraxella catarrhalis; [11]): 50 µg/mL
- MIC P. aeruginosa (Pseudomonas aeruginosa; [11]): 12.5 µg/mL
- MIC P. mirabilis (Proteus mirabilis; [11]): 12.5 µg/mL
- MIC (E. coli DH5α): 12.5 µg/mL
- MIC E. coli BL21 (E. coli BL21; [11]): 50 µg/mL
- MIC S. marcescens (Serratia marcescens; [11]): 25 µg/mL

Substance: PRT232 (DIDECRQDPSTCGPNSICTNALGSYSCGCIAGFHPNPEGSQKDGNFSCQ; listed as Homo sapiens)
- MIC (μg/mL) K. pneumonia (Klebsiella pneumonia; [1]): 12.5 µg/mL
- MIC (μg/mL) P. vulgaris (Proteus vulgaris; [2]): 12.5 µg/mL
- MIC (μg/mL) A. hydrophila (Aeromonas hydrophila; [3]): 12.5 µg/mL
- MIC (μg/mL) C. diversus (Citrobacter diversus; [4]): 25 µg/mL
- MIC (μg/mL) E. cloacae (Enterobacter cloacae; [5]): 25 µg/mL
- MIC (μg/mL) M. catarrhalis (Moraxella catarrhalis; [6]): 12.5 µg/mL
- MIC (μg/mL) P. aeruginosa (Pseudomonas aeruginosa; [7]): 25 µg/mL
- MIC (μg/mL) P. mirabilis (Proteus mirabilis; [8]): 25 µg/mL
- MIC (E. coli DH5α): 25 µg/mL
- MIC (μg/mL) E. coli BL21 (E. coli BL21; [9]): 12.5 µg/mL
- MIC (μg/mL) S. marcescens (Serratia marcescens; [10]): 25 µg/mL

Substance: PRT732 (SVNPCAFSRCSHLCLLSSQGPHFYSCVCPSGWSLSPDLLNCL; listed as Homo sapiens)
- MIC K. pneumonia (Klebsiella pneumonia; [11]): 50 µg/mL
- MIC P. vulgaris (Proteus vulgaris; [11]): 25 µg/mL
- MIC A. hydrophila (Aeromonas hydrophila; [11]): 12.5 µg/mL
- MIC C. diversus (Citrobacter diversus; [11]): 25 µg/mL
- MIC E. cloacae (Enterobacter cloacae; [11]): 25 µg/mL
- MIC M. catarrhalis (Moraxella catarrhalis; [11]): 50 µg/mL
- MIC P. aeruginosa (Pseudomonas aeruginosa; [11]): 12.5 µg/mL
- MIC P. mirabilis (Proteus mirabilis; [11]): 25 µg/mL
- MIC (E. coli DH5α): 12.5 µg/mL
- MIC E. coli BL21 (E. coli BL21; [11]): 50 µg/mL
- MIC S. marcescens (Serratia marcescens; [11]): 12.5 µg/mL
